Measured values taken from patent USRE38115E1, “Dextromethorphan and an oxidase inhibitor for treating intractable conditions” (Center for Neurologic Study, priority 1996, dated 2003).
Values joined by “and” are separate entries in the source; they are usually repeats but may differ in a detail not shown here. Equal entries are not always repeated.

Tests used:
debrisoquin hydroxylase = debrisoquin hydroxylase (Homo sapiens, UniProt P10635); settings: cited from earlier work
[1] = tested on: patients with emotional lability; settings: patients with bilateral neurological damage; described in U.S. Pat. No. 5,206,248; cited from earlier work
[2] = Plasma concentrations of DM (Example 2); assay type: in vivo, human; settings: DM 120 MG/DAY oral, quinidine 0; blood 10-12 hours later; one value per patient; listed as dextromethorphan
Protocol: Between 10 and 12 hours later, blood was sampled, blood plasma was isolated by centrifugation, and the plasma was analyzed to determine the DM concentration using the thebaine/HPLC method.
Between 10 and 12 hours later, blood was sampled and the plasma was analyzed for DM using thebaine/HPLC.

DM oxidation = assay: Urinary DM/DRP ratio with other antioxidants (Example 4); settings: urine; for baseline DM/DRP ratio: DM alone
Protocol: In these tests, DM was administered at a constant dosage to various individuals, all were healthy volunteers. DM was taken both before and after a candidate antioxidant was taken, and urine samples were collected at appropriate times and analyzed to determine the quantity of DM and its principle metabolite dextrorphan (DRP) in the urine.
Twelve healthy volunteers were studied.
After the baseline DM/DRP value for each volunteer had been determined, a candidate antioxidant was administered. […] After an appropriate delay, a second urine sample was obtained and analyzed. Each agent was administered to two patients.

[3] = tested on: dextromethorphan metabolism; assay: Urinary DM/DR ratios (Example 1); settings: urine, several hours after single 60 mg oral DM; ALS patients, one value per patient
Protocol: Six patients suffering from ALS were administered orally a single 60 mg dextromethorphan dose. Several hours later, a urine sample was collected, and the urine concentrations of dextromethorphan (DM) and dextrorphan (DR) were measured as described below to determine a DM/DR ratio.
To this was added 2000 units of betaglucuronidase in 1 mL of acetate buffer (0.1M, pH 5.0). The mixture was incubated for 18 hours at 37° C. and then extracted by adding 1 mL of phosphate buffer (pH 12, 0.10M) and 7 mL of n-butanol/hexane (10:90 v/v). After mixing and centrifugation, the organic layer was transferred to a clean tube, acidified with 400 uL of 0.01N HCL and 20 microliters (uL) of aqueous phase injected into a high performance liquid chromatography (HPLC) system. The HPLC used a phenyl column equilibrated with a mobile phase of acetonitrile:water (51:49 v/v) containing 10 mM KHPO4, 10 mM hexane sulfonic acid, pH 4.0 (flow rate 1.2 mL/min).
Briefly, 0.5 ml urine samples were spiked with 500 nanograms (ng) of dimethacrine. The urine pH was adjusted to […] with 0.1M acetate buffer (usually about 1.0 ml), and beta-glucuronidase was added (2000 units/ml urine). The mixture was incubated and shaken at 37° C. for 18 hours. The urine was subsequently adjusted to pH 10-11 with 1.0 mL of phosphate buffer and the urine extracted with 5 mL of dichloromethane. […]

Chain of debrisoquin hydroxylase (P10635 whole entry): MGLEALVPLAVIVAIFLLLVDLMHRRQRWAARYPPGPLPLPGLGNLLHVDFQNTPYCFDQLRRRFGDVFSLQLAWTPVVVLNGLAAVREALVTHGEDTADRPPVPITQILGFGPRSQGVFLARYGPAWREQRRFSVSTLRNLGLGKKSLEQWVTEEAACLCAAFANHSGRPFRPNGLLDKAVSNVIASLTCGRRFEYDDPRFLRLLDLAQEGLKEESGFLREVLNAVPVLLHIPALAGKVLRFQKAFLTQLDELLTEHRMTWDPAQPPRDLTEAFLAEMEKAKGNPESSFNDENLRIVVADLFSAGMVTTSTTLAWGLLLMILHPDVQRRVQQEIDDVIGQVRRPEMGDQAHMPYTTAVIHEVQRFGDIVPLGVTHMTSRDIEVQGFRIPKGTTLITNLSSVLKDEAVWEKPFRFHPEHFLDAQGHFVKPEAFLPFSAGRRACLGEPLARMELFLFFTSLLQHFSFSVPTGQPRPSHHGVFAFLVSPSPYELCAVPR

## CNCCC=C1c2ccccc2CCc2ccccc21 [nortriptyline]
Debrisoquin hydroxylase
  Ki: ≤ 50 µM

## Cc1cccc(C)c1OCC(C)N (stereo not shown) [mexiletine]
Debrisoquin hydroxylase
  Ki: ≤ 50 µM

## CC(CCc1ccccc1)NCC(O)c1ccc(O)c(C(N)=O)c1 (stereo not shown) [labetalol]
Debrisoquin hydroxylase
  Ki: ≤ 50 µM

## C=CCOc1ccccc1OCC(O)CNC(C)C (stereo not shown) [oxprenolol]
Debrisoquin hydroxylase
  Ki: ≤ 50 µM

## COc1ccc2c(c1)[C@@]13CCCC[C@H]1[C@@H](C2)N(C)CC3 [DM, (+)-3-methoxy-N-methylmorphinan]
[1]
  effect on symptoms of emotional lability: not observed in any patients who received DM alone
[2]
  DEXTROMETHORPHAN PLASMA LEVEL: 9.3 NG/ML and NOT DETECTABLE (2×) and 16.5 NG/ML and 6.05 NG/ML
DM oxidation; extensive metabolizers, healthy volunteers
  baseline DM/DRP ratio: ≤ 0.06
DM oxidation; one poor metabolizer (control)
  baseline DM/DRP ratio: 1.338
DM oxidation; DM before candidate antioxidant, single subjects
  DM/DRP ratio, pre-drug baseline: 0.02 (2×) and 0.00 (3×) and 0.03 and 0.06 (2×)
[3]
  DM/DR Ratio, no quinidine: <0.0002 and 0.054 and 0.0048 and 0.0220 and 0.0002 and 0.0003
